Assays:
[1] = test system: neonatal skeletal muscle cell; experiment: Cell viability of control cells: neonatal skeletal muscle cell; type: cell-based, rat; settings: 100 μg/ml M. koenigii + 100 μg/ml T. terrestris, total 200 μg/ml; 96 h
Method: The skeletal muscles from 2-day-old neonatal rat were isolated by method described previously by William E Russell (1997) with modifications. Briefly, Soleus muscle were dissected, minced and digested with 0.2% Type II Collagenase and 0.05% trypsin in Phosphate buffered Saline (PBS) pH 7.4, 0.15M NaCl. The dispersed skeletal muscle cells were centrifuged (1000 g, 10 minutes) washed and resuspended in Phosphate buffered Saline (PBS) with 1% antibiotic-antimycotic. Cells were preincubated for 30 minutes at 37° C., 95% air/5%CO2. The floating muscle cells were plated on collagen coated T-25 flaks in Dulbecco's modified Eagle Medium enriched with 10% Fetal. Bovine Serum and 1% antibiotic-antimycotic
Viability of PC-3 after treatment as at the indicated times was determined by MTT assay -Cell titre 96 AQoueus One solution Cell Proliferation Assay (Promega, Corp. Madison, Wis.) as per manufacturer's protocol. Briefly, 10,000 cells were plated in triplicate in 96 well plates and incubated for 12 hours in complete media. Compound MK-3 was added as indicated on replacing them to fresh complete media and incubated upto 96 hours for varied time periods. 20 μl per well of cell titre 96 AQoueus One solution reagent. […] Absorbance was recorded at 490 nm with 96 well plate readers. Reference wavelength of 630 nm was used to reduce background contributed by non-specific absorbance due to cell debris.

[2] = test system: cardiomyocyte; experiment: Cell viability of control cells: neonatal cardiomyocyte; type: cell-based, rat; settings: 100 μg/ml M. koenigii + 100 μg/ml T. terrestris, total 200 μg/ml; 96 h
Method: The cardiomyocytes from 2-day-old neonatal rat were isolated by the method previously described by Yoshihiro Kimura (1994) with modifications. Briefly, heart was excised and minced in pre warmed (37° C.) Ads buffer (1.2M NaCl, 198 mM HEPES, 54 mM KCl, 8.3 mM MgSO4, 55.4 mM glucose, 95 mM NaH2PO4), digested in typeII Collagenase 0.05% and Pancreatin in 3-succesive digestions of 15 minutes each. Supernatant was pooled and cells palleted at 2000 g, 10 minutes. Cells were resuspended and plated in collagen coated T-25 flaks in Medium-199 enriched with 10% Fetal Bovine Serum and 1% antibiotic-antimycotic.
(§1) Viability of PC-3 after treatment as at the indicated times was determined by MTT assay -Cell titre 96 AQoueus One solution Cell Proliferation Assay (Promega, Corp. Madison, Wis.) as per manufacturer's protocol. Briefly, 10,000 cells were plated in triplicate in 96 well plates and incubated for 12 hours in complete media. Compound MK-3 was added as indicated on replacing them to fresh complete media and incubated upto 96 hours for varied time periods. 20 μl per well of cell titre 96 AQoueus One solution reagent. Incubate the plate for 1-4 hours at 37° C. and humidified 5% CO2 atmosphere. Absorbance was recorded at 490 nm with 96 well plate readers. Reference wavelength of 630 nm was used to reduce background contributed by non-specific absorbance due to cell debris.

[3] = test system: hepatocyte; experiment: Cell viability of control cells: neonatal hepatocyte; type: cell-based, rat; settings: 100 μg/ml M. koenigii + 100 μg/ml T. terrestris, total 200 μg/ml; 96 h
Method: The hepatocytes from 2-day-old neonatal rat were isolated by method described previously by William E Russell (1997) with modifications. Briefly, the livers were perfused through the portal vein with a calcium-free solution consisting of 150 mM NaCl, 2.8 mM KCl, 5.5 mM glucose, and 25 mM HEPES (pH 7.6) for 10 min, followed by mincing and digestion in DMEM containing 0.05% collagenase type IV for 30 minutes. The cells were centrifuged (2000 g, 10 minutes) and dispersed in DMEM enriched with 10% fetal Bovine Serum, 1% antibiotic-antimycotic.
as §1

[4] = Acute toxicity as per WHO guidelines, haematological parameters; type: in vivo, Mice, Balb/C; settings: mahanine 2 gm/kg body weight orally once, 15 days after treatment; vehicle control 92
Method: (§2) Experiments for acute toxicity are performed as per the guidelines of WHO. Experimental subject: Mice, Balb/C Male, female. 25 gms body weight (approx) 16 mice were divided into 2 groups 8 animals were received the dosage of @2 gm/kg body weight of combined extract. Equal volume of the vehicle (DMSO) were given to 8 animals wherein dose administered orally once and then animals sacrificed and haematological parameters checked 15 days after treatment.
as §2, with “compound” for “dosage of”, “weight.” for “weight of combined extract.”, “haematological and biochemical” for “haematological”

Substance: mahanine
- toxic effects / cell death [1]: no sign of cell death
- toxic effects / cell death [2]: no sign of cell death
- toxic effects / cell death [3]: no sign of cell death
- WBC [4]: 89

From patent publication US20070104811A1, “Pharmaceutical composition useful for the treatment of prostate cancer” (priority 2005, published 2007)
